Patent publication US10647680B2, “Urea compound, preparation method therefor and medical use thereof” (Ancureall Pharmaceutical (Shanghai) Co., Ltd., priority 2016, dated 2020)

Columns and labels:
Type in all cases: in vitro ADME
Settings in all cases: human liver microsomes
CYP2B6 = target: T1, CYP2B6 (Homo sapiens, UniProt P20813); test: P450 enzyme inhibition, CYP2B6
T1 construct: human liver microsomes (BD Gentest) (0.5 mg/mL); tissue BD Gentest; host or cells: human liver microsomes
T1 sequence (P20813 1-491): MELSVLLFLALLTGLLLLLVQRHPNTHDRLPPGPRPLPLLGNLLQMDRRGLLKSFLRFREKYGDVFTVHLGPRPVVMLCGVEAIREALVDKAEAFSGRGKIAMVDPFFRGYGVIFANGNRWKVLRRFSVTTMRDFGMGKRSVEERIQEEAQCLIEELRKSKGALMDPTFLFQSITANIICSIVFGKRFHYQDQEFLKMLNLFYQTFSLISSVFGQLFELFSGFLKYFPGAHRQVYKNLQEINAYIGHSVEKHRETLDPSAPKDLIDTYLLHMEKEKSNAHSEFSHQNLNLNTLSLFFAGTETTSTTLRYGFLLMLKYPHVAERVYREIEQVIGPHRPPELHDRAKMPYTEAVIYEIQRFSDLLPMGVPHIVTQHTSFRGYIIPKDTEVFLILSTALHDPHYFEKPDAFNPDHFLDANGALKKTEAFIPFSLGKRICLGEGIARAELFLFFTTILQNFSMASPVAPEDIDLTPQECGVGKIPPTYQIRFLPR
Protocol: (§1) Eight cytochrome p450 enzyme inhibition reactions of human liver microsomes were performed using compound 77 of the present invention as a representative example.
(§2) The main reaction systems and processes: in 37° C. water bath, the test compounds (7 concentrations, 0, 0.25, 0.5, 5, 10, 25, and 50 uM; the final methanol concentration was 1% in the system), human liver microsomes (BD Gentest) (0.5 mg/mL) and reducing coenzyme II (Roche 10621706001) (1 mg/mL) and the corresponding cytochrome p450 enzyme probe substrate were co-incubated for 5 to 20 minutes. Among them, (1) the probe substrate for CYP1A2 was Phenacetin ([…]) (Sigma), and the selective inhibitor alpha-naphthoflavone (2 uM) (Sigma) was for parallel detection as positive control, and they were incubated for 20 minutes. (2) The probe substrate for CYP2b6 was Bupropion (40 uM) (Sigma) and the selective inhibitor Ticlopidine (10 uM) (Sigma) was for parallel detection as positive control, and they were incubated for 20 minutes. (3) The probe substrate of CYP2C8 was Amodiaquine (1 uM) (Sigma), and the selective inhibitor Montelukast (10 uM) (Sigma) was for parallel detection as positive control, and they were incubated for 20 minutes. (4) The probe substrate for CYP2C9 was Diclofenac (2.5 uM) (Sigma), and the selective inhibitor Sulphaphenazole (10 uM) (Sigma) was for parallel detection as positive control, and they were incubated for 20 minutes. (5) The probe substrate for CYP2C19 was Mephenytoin (40 uM) (Sigma), and the selective inhibitor Ticlopidine (10 uM) (Sigma) was for parallel detection as positive control, and they were incubated for 20 minutes. (6) The probe substrate for CYP2D6 was Dextromethorphan (5 uM) (Sigma), and the selective inhibitor Quinidine (10 uM) (Sigma) was for parallel detection as positive control, and they were incubated for 20 minutes. (7) The probe substrates for CYP3A4-T and CYP3A4-M were Testosterone (5 uM) (Sigma) and Midazolam (5 uM) (Sigma), respectively, and the selective inhibitor was Ketoconazole (1 uM) (Sigma), they were detected in parallel as positive control, and incubated for 5 minutes. The reaction system was quenched by adding methanol containing the corresponding internal standard. The internal standard compound was Tolbutamide (Sigma). The concentration of the corresponding metabolites was determined by LC/MS/MS. For the data analysis, the decrease in peak area of the metabolite of the sample after addition of compound 77 relative to the peak area of the metabolite of the solvent control sample was used to calculate the IC50 (concentration of the test substance at 50% inhibition). The percentages of peak areas of metabolites of CYP1A2, CYP2B6, CYP2C8, CYP2C9, 15CYP2C19, CYP2D6, CYP3A4-T, and CYP3A4-M probe substrates after addition of different concentrations of compound 77 and selective inhibitors relative to the solvent control peak areas were shown in the Table 7.

CYP3A4-T = target: T2, CYP3A4-T (Homo sapiens, UniProt P08684); test: P450 enzyme inhibition, CYP3A4-T (Testosterone)
T2 construct: human liver microsomes (BD Gentest) (0.5 mg/mL); tissue BD Gentest; host or cells: human liver microsomes
Protocol: as §1, §2

CYP3A4-M = target: T3, CYP3A4-M (Homo sapiens, UniProt P08684); test: P450 enzyme inhibition, CYP3A4-M (Midazolam)
T3 construct: human liver microsomes (BD Gentest) (0.5 mg/mL); tissue BD Gentest; host or cells: human liver microsomes
Protocol: as §1, §2

T2 sequence (P08684 whole entry): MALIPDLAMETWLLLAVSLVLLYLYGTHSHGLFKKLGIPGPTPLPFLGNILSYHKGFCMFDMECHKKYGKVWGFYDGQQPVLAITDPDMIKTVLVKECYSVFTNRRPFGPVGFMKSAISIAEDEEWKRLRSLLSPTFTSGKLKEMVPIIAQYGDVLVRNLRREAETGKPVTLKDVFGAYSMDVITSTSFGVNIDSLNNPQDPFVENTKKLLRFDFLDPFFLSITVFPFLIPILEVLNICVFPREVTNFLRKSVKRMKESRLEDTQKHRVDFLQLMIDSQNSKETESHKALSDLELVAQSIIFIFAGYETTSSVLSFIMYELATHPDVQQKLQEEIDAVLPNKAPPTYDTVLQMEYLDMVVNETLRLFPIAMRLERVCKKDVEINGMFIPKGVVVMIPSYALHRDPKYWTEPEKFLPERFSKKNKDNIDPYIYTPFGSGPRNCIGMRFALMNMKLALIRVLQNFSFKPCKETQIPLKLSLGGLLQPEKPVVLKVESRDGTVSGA
T3 sequence (P08684 whole entry): as above

COCCOc1ccc2c(c1)ncn2-c1ccc(NC(=O)Nc2cc(C(C)(C)C)n[nH]2)cc1 [Compound 77, 1-(5-tert-butyl-2H-pyrazol-3-yl)-3-{4-[5-(2-methoxyl-ethoxyl)-benzimidazol-1-yl]-phenyl}-urea]
CYP2B6 Remaining % (CYP2B6; Concentration 0.25 uM): 106.1%
CYP2B6 Remaining % (CYP2B6; Concentration 0.5 uM): 109.6%
CYP2B6 Remaining % (CYP2B6; Concentration 5 uM): 100.4%
CYP2B6 Remaining % (CYP2B6; Concentration 10 uM): 90.1%
CYP2B6 Remaining % (CYP2B6; Concentration 25 uM): 64.6%
CYP2B6 Remaining % (CYP2B6; Concentration 50 uM): 40.1%
IC50 (CYP2B6; read-out: half-inhibitory concentration (IC50) of CYP2B6): 39 µM
CYP3A4T Remaining % (CYP3A4-T; Concentration 0.25 uM): 108.5%
CYP3A4T Remaining % (CYP3A4-T; Concentration 0.5 uM): 108.2%
CYP3A4T Remaining % (CYP3A4-T; Concentration 5 uM): 104.7%
CYP3A4T Remaining % (CYP3A4-T; Concentration 10 uM): 112.5%
CYP3A4T Remaining % (CYP3A4-T; Concentration 25 uM): 109.9%
CYP3A4T Remaining % (CYP3A4-T; Concentration 50 uM): 101.2%
inhibitory effect on CYP3A4-T (CYP3A4-T; Concentration 50 uM): no significant inhibitory effect
CYP3A4M Remaining % (CYP3A4-M; Concentration 0.25 uM): 105.7%
CYP3A4M Remaining % (CYP3A4-M; Concentration 0.5 uM): 105.7%
CYP3A4M Remaining % (CYP3A4-M; Concentration 5 uM): 105.0%
CYP3A4M Remaining % (CYP3A4-M; Concentration 10 uM): 97.3%
CYP3A4M Remaining % (CYP3A4-M; Concentration 25 uM): 97.2%
CYP3A4M Remaining % (CYP3A4-M; Concentration 50 uM): 84.0%
inhibitory effect on CYP3A4-M (CYP3A4-M; Concentration 50 uM): no significant inhibitory effect
